Measured values: paper PMC10165273, “Itch receptor MRGPRX4 interacts with the receptor activity–modifying proteins” (The Journal of Biological Chemistry, 2023)
Values joined by “and” are separate entries in the source; they are usually repeats but may differ in a detail not shown here. Identical values can stand only once. Like-named read-outs stand apart in the source and are kept apart here.

Experiments:
[1] = biological target: T1, MRGPRX4 + RAMP1 (Homo sapiens, UniProt Q96LA9); experiment: BRET2 β-arrestin2 recruitment, MRGPRX4 with RAMP1; format: cell-based; conditions: RAMP1 coexpression vs MRGPRX4 alone (Fig. 5F)
T1 construct: expressed in transfected cells; host or cells: HEK293T
T1 sequence (Q96LA9 whole entry): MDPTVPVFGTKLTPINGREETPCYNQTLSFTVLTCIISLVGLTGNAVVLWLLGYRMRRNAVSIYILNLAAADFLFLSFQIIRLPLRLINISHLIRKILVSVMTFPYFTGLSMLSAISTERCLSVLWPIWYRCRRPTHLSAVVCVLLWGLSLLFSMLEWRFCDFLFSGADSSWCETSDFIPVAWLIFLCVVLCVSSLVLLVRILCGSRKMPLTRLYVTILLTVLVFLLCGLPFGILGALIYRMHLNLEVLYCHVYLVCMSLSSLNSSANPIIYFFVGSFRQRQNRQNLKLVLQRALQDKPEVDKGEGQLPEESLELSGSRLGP
Method: (§1) The method for homogenous transfection of β-Arrestin and BRET^2 assay of β-Arrestin recruitment has been described previously ([51]). […] BRET^2 measurements were taken on the BioTek Synergy NEO2 microplate reader.
(§2) The BRET ratio for each sample was determined by calculating the ratio of the light intensity emitted by the GFP10 (515 nm) (acceptor) over the light intensity emitted by the RLuc3 (395 nm) (donor). Net BRET^2 was determined by subtracting the basal BRET^2 (β-arrestin-RLuc3 only) signal from the BRET^2 signals. All BRET values were normalized to the MRGPRX4-only condition.

[2] = biological target: T2, MRGPRX4 + RAMP2 (Homo sapiens, UniProt Q96LA9); experiment: BRET2 β-arrestin2 recruitment, MRGPRX4 with RAMP2; format: cell-based; conditions: for BRET2 ratio, time course (Figure 5e): MRGPRX4 + RAMP2 100μM Ng, listed as Ng
T2 construct: expressed in transfected cells; host or cells: HEK293T
T2 sequence (Q96LA9 whole entry): as above
Method: as §1
To measure the time-course of β-Arrestin2 recruitment to MRGPRX4 and CALCRL, the transfection and general procedure described above was followed, with the modification that Prolume Purple was added first, followed by addition of the appropriate agonists ([51]).
as §2

[3] = biological target: T3, MRGPRX4 + RAMP3 (Homo sapiens, UniProt Q96LA9); experiment: BRET2 β-arrestin2 recruitment, MRGPRX4 with RAMP3; format: cell-based
T3 construct: expressed in transfected cells; host or cells: HEK293T
T3 sequence (Q96LA9 whole entry): as above
Method: as §1, §2

[4] = test system: mock-transfected cells; experiment: BRET2 β-arrestin recruitment time course, mock-transfected cells; format: cell-based, human; conditions: Fig 5c, 100μM ligand, listed as Ng
[5] = test system: mock (βArr2); experiment: BRET2 β-arrestin2 recruitment, mock-transfected cells; format: cell-based, human; conditions: 100µM Ng
[6] = test system: MRGPRX4; design: method as in Cao et al. [23]; conditions: ref Cao et al. [23]; read-out: Ca2+ flux EC50; cited from earlier work
[7] = test system: MRGPRX4; design: method as in PMID 25895059; conditions: ref [10]; read-out: phosphatidylinositol hydrolysis EC50; cited from earlier work

Compound: CC(C)[C@H]1CC[C@H](C(=O)N[C@H](Cc2ccccc2)C(=O)O)CC1 [Nateglinide]
- decrease in β-arrestin2 recruitment upon nateglinide treatment [1]: ~10%
- BRET2 ratio, time course (Figure 5e) ([2]; 60 seconds): 0.009668 and 0.00973 and 0.009697
- BRET2 ratio, time course (Figure 5e) ([2]; 120 seconds): 0.01023 and 0.01 and 0.01054
- BRET2 ratio, time course (Figure 5e) ([2]; 180 seconds): 0.01074 and 0.009771 and 0.01057
- BRET2 ratio, time course (Figure 5e) ([2]; 240 seconds): 0.01008 and 0.0101 and 0.01015
- BRET2 ratio, time course (Figure 5e) ([2]; 300 seconds): 0.009689 and 0.009979 and 0.01017
- BRET2 ratio, time course (Figure 5e) ([2]; 360 seconds): 0.009793 and 0.009837 and 0.01091
- BRET2 ratio, time course (Figure 5e) ([2]; 420 seconds): 0.009697 and 0.01031 and 0.01076
- BRET2 ratio, time course (Figure 5e) ([2]; 480 seconds): 0.00993 and 0.009604 and 0.009499
- BRET2 ratio, time course (Figure 5e) ([2]; 540 seconds): 0.00961 and 0.009808 and 0.01044
- BRET2 ratio, time course (Figure 5e) ([2]; 600 seconds): 0.01026 and 0.01047 and 0.00952
- BRET2 ratio, time course (Figure 5e) ([2]; 660 seconds): 0.009244
- decrease in β-arrestin2 recruitment upon nateglinide treatment ([2]; RAMP2 coexpression vs MRGPRX4 alone (Fig. 5F)): 73%
- normalized β-arrestin2 recruitment BRET2 signal (Figure 5f) ([3]; MRGPRX4 + RAMP3, 100μM Ng, listed as Ng): 0.6122 and 0.604 and 0.6466 and 0.7957
- attenuation of β-arrestin2 recruitment upon nateglinide treatment ([3]; RAMP3 coexpression vs MRGPRX4 alone (Fig. 5F)): 34%
- BRET2 ratio ([4]; 60 s): 0.008415 and 0.007646 and 0.00794
- BRET2 ratio ([4]; 120 s): 0.007842 and 0.007685 and 0.007289
- BRET2 ratio ([4]; 180 s): 0.007259 and 0.007981 and 0.007565
- BRET2 ratio ([4]; 240 s): 0.007155 and 0.006788 and 0.008148
- BRET2 ratio ([4]; 300 s): 0.007567 and 0.007447 and 0.007514
- BRET2 ratio ([4]; 360 s): 0.008471 and 0.007058 and 0.007429
- BRET2 ratio ([4]; 420 s): 0.007097 and 0.007188 and 0.007508
- BRET2 ratio ([4]; 480 s): 0.006826 and 0.007196 and 0.007205
- BRET2 ratio ([4]; 540 s): 0.008083 and 0.00749 and 0.00867
- BRET2 ratio ([4]; 600 s): 0.007686 and 0.006192 and 0.007271
- BRET2 ratio ([4]; 660 s): 0.006698 and 0.007765 and 0.007192
- BRET2 ratio ([4]; 720 s): 0.00801 and 0.006623 and 0.005548
- BRET2 ratio ([4]; 780 s): 0.009777 and 0.007416 and 0.006284
- BRET2 ratio ([4]; 840 s): 0.007062 and 0.008946 and 0.00672
- BRET2 ratio ([4]; 900 s): 0.007894 and 0.008249 and 0.007741
- BRET2 ratio ([4]; 960 s): 0.008424 and 0.006304 and 0.008892
- BRET2 ratio ([4]; 1020 s): 0.008684 and 0.007837 and 0.007668
- BRET2 ratio ([4]; 1080 s): 0.008011 and 0.008281 and 0.007344
- BRET2 ratio ([4]; 1140 s): 0.009425 and 0.00762 and 0.007536
- BRET2 ratio ([4]; 1200 s): 0.006477 and 0.008078 and 0.009426
- BRET2 ratio ([4]; 1260 s): 0.008155 and 0.006248 and 0.008937
- BRET2 ratio ([4]; 1320 s): 0.008765 and 0.01027 and 0.007016
- BRET2 ratio ([4]; 1380 s): 0.009766 and 0.009472 and 0.01001
- β-arrestin recruitment BRET2 signal (Figure 5d) [5]: -0.01563
- EC50 [6]: 4.72 µM
- EC50 [7]: 2.1 µM
